Assay results published in patent US20030100109A1, “Methods and compositions for in vitro germination and propagation of polygonatum cirrhifolium royle” (priority 2001, published 2003).
Where “and” joins values, the source holds several entries; their conditions need not be identical. Equal values may be shown once.

Columns and labels:
[1] = system: Polygonatum cirrhifolium Royle seeds; experiment: Induction of germination (hypocotyl emergence) on modified MS medium with GA3 at 30° C. in dark; type: in vivo; details: modified MS culture medium; for Percent germination: mean ± S.E.
Description: Ripe purplish berries from plants grown in the wild were collected and dehydrated for 15 days at room temperature (29° C.±2° C.). Seeds were collected from dehydrated berries and washed in tap water with 1-2 drops of Tween-20™ for 2 hours and rinsed three times in distilled water. Seeds were then surface sterilized with 0.1% mercuric chloride (HgCl2) for 3 minutes. Mercuric chloride was removed by washing seeds four times in sterile distilled water. Sterilized, rinsed seeds were placed on semi-solid culture medium in sterile disposable plastic Petri plates (10 cm×2 cm). Macro and micro nutrients in the basal medium were that of Murashige and Skoog's (Murashige, T. and Skoog, F. […]. Physiol Plant 15: 433 -497) but modified to contain 2.2 g/L NH4NO3, 2.0 g/L KNO3, 0.44 g/l CaCl2.2H2O, 0.37 g/L MgSO4.7H20, 0.17 g/L KH2PO4, 37.25 mg/L Na2 EDTA, 27.8 mg/L FeSO4.7H20, 0.83 mg/L KI, 6.2 mg/L H3BO3, 22.3 mg/L MnSO4.4H20, 8.6 mg/L ZnSO4.7H20, 0.25 mg/L Na2 MoO4.2H20, 0.025 mg/L CuSO4.5H2O, 0.025 mg/L CoCl2.6H20. This medium was supplemented with 250 mg/L myo-inosital, 0.5 mgl/l nicotinic acid, 0.5 mg/L pyridoxine HCl, 3 mg/L thiamine HCl, 2 mg/L glycine, 30 g/L sucrose, 7.5 g/L agar and 2, 10, 25, and 50 mg/L gibberellic acid. The pH of the medium was adjusted to 5.8 before adding agar. Medium was sterilized at 121° C. (15 lb. psi pressure) for 20 minutes. […] Seeds with emerged hypocotyl were transferred under aseptic conditions to the above defined basal culture medium containing gibberellic acid at 5, 25, 50 and 100 mg/L. Transferred plants were incubated in an environment having 8-16-hr days under about 2000 lux of light and about 8-16-hr nights in total darkness at a constant temperature of 20° C. ([…]) and at 50-60% RH. Illumination was provided by 40-watt cool, white fluorescent tubes. Germination synchronization as indicated by differentiated epicotyl with emergent coleoptile and radicle was recorded on daily basis. Tables 1 and 2 show the induction of germination as indicated by the emergence of hypocotyl at temperature of 30° C. (±2° C.; dark; RH 50-60%) and diurnal temperature of 30/20° C. (±2° C.; dark; RH 50-60%). Experiment consisted of 4 treatments in the form of varying levels of GA3 (2, 10, 25 and 50 mg/L) supplemented to culture medium consisting of 2.2 g/L NH4NO3, 2.0 g/L KNO3, 0.44 g/l CaCl2.2H2O, 0.37 g/L MgSO4.7H20, 0.17 g/L KH2PO4, 37.25 mg/L Na2 EDTA, 27.8 mg/L FeSO4.7H20, 0.83 mg/L KI, 6.2 mg/L H3BO3, 22.3 mg/L MnSO4.4H20, 8.6 mg/L ZnSO4.7H20, 0.25 mg/L Na2 MoO4.2H20, 0.025 mg/L CuSO4.5H2O, 0.025 mg/L CoCl2.6H20, 250 mg/L myo-inositol, 0.5 mg/L nicotinic acid, 0.5 mg/L pyridoxine HCl, 3 mg/L thiamine HCl, 2 mg/L glycine, 30 g/L sucrose and 7.5 g/L agar. Each treatment consisted of 15 replicates with 5 seeds in each. These were incubated at a constant temperature of 30° C. under continuous darkness at a RH of 60%. With the increase in GA3 concentration, there is concomitant increase in germination (Table 1). Maximum germination of 98.53% was obtained at 25 mg/L of GA3. Germination extended from 24-61 days (maximum duration) at 2 mg/L of GA3 and 7-23 days (minimum duration) at 50 mg/L of GA3 respectively.

[2] = system: Polygonatum cirrhifolium Royle secondary explants; experiment: De novo axillary bud differentiation and release of foliage leaves on MS medium with GA3, BAP and NAA; type: in vivo; details: for Percentage axillary buds producing leaves / Percentage secondary-explants producing axillary buds / Mean number of axillary buds per secondary explant: MS medium, after 16 weeks of culture; for Mean number of axillary buds per secondary explant: ± SE
Source text: Cultures were maintained at 50-60% RH. Plants were subcultured every four weeks in both sets of experiments on the same media formulations. Observations were made periodically but final data was compiled after 16 weeks of culture. In still another embodiment of the present invention, results in table 4 and 5 show the influence of various concentrations and combinations of BAP, NAA and GA3 on the in vitro release of epicotyl dormancy indicated by the release of rosette of leaves and induction of de novo axillary bud differentiation and their sprouting at 20-24° C. under 10-16 hr photoperiod (2000-3500 lux) at 50-60% of RH. […] Each treatment consisted of 24 cultures. These were incubated at 20° C. under 16 hr photoperiod (2000 lux) at 60% RH. […] There is a concomitant increase in the elicitation of response with the increasing concentrations of GA3.

[3] = GA3 1. mg/L in combination and 1.0 mg/L of NAA
[4] = GA3 5. mg/L in combination and 1.0 mg/L of NAA
[5] = GA3 10. mg/L in combination and 1.0 mg/L of NAA
[6] = GA3 15. mg/L in combination and 1.0 mg/L of NAA
[7] = GA3 20. mg/L in combination and 1.0 mg/L of NAA

Compound: C=C1C[C@]23C[C@@]1(O)CC[C@H]2[C@@]12C=C[C@H](O)[C@@](C)(C(=O)O1)[C@H]2[C@@H]3C(=O)O [GA3, gibberellic acid]
- Duration of germination ([1]; GA3 2 mg/L): 24 to 61 days
- Percent germination ([1]; GA3 2 mg/L): 23.69 ± 7.04 %
- Duration of germination ([1]; GA3 10 mg/L): 19 to 53 days
- Percent germination ([1]; GA3 10 mg/L): 66.18 ± 4.77%
- Duration of germination ([1]; GA3 25 mg/L): 11 to 30 days
- Percent germination ([1]; GA3 25 mg/L): 98.53% and 98.53 ± 3.82%
- Duration of germination ([1]; GA3 50 mg/L): 7 to 23 days
- Percent germination ([1]; GA3 50 mg/L): 97.11 ± 4.01%
- Percentage axillary buds producing leaves [2, 3]: 37.03%
- Percentage secondary-explants producing axillary buds [2, 3]: 16.67%
- Mean number of axillary buds per secondary explant [2, 3]: 2.70 ± 0.70
- Remarks ([2]; GA3 1. mg/L in combination and 1.0 mg/L of NAA, remark wraps over r12-r14: Epicotylar bulge swells forms rhizomatous base): Epicotylar bulge
- Percentage axillary buds producing leaves [2, 4]: 46.58— %
- Percentage secondary-explants producing axillary buds [2, 4]: 70.83%
- Mean number of axillary buds per secondary explant [2, 4]: 6.44 ± 1.04
- Percentage axillary buds producing leaves [2, 5]: 66.22%
- Percentage secondary-explants producing axillary buds [2, 5]: 87.50%
- Mean number of axillary buds per secondary explant [2, 5]: 9.06 ± 2.00
- Percentage axillary buds producing leaves [2, 6]: 77.12%
- Percentage secondary-explants producing axillary buds [2, 6]: 100.00%
- Mean number of axillary buds per secondary explant [2, 6]: 11.67 ± 1.96
- Percentage axillary buds producing leaves [2, 7]: 97.03%
- Percentage secondary-explants producing axillary buds [2, 7]: 100.00%
- Mean number of axillary buds per secondary explant [2, 7]: 8.96 ± 2.01
- Remarks ([2]; GA3 20. mg/L in combination and 1.0 mg/L of NAA, remark wraps over r18-r20: Rhizomatous base, callus induction): Rhizomatous
